Columns and labels:
IL-12 production = IL-12 production in LPS-stimulated RAW264.7 cells (ELISA); type: cell-based; conditions: 100 ng/mL LPS, 21 h; for IL-12: compound 0.5 mM
Experimental: The effect of selected compounds on IL-12 production was undertaken in RAW264.7 (macrophage-like) cells. RAW264.7 cells were cultured with 100 ng/mL of LPS in presence or absence of compounds for 21 h in a humidified atmosphere of 95% air-5% carbon dioxide at 37° C. IL-12 concentration in the culture medium was measured using the IL-12 ELISA according to the manufacturer (BD Biosciences) recommendations. […] Compounds have no effect on IL-12 production in the absence of LPS.

CT-26WT colon tumor = experiment: Primary colon CT-26WT tumor in mice; type: in vivo; conditions: FIG. 12 and 13
Experimental: The syngeneic tumor CT-26WT (CT-26) is a colon tumor cell line obtained from ATCC (CRL-2638). CT-26 cells were grown in RPMI containing 10% fetal bovine serum. At day 0, 50 μL of 5×10^6 viable CT-26 cells were subcutaneously injected to produce localized tumors in 6- to 8-week old mice. The animals were then serially monitored by manual palpation for evidence of tumor. […] Mice were sacrificed at day 25. Serial tumor volume was obtained by bi-dimensional diameter measurements with calipers, using the formula 0.4 (a×b^2) where “a” was the major tumor diameter and “b” the minor perpendicular diameter. Tumors were palpable, in general, 3-5 days post-inoculation.

CTGF production = experiment: Inhibition of TGF-induced CTGF production in NHDF (ELISA); type: cell-based; conditions: Homo sapiens, 10 ng/mL TGF-β, 48 h
Experimental: The effect of selected compounds on CTGF production was undertaken in normal human dermal fibroblast (NHDF) or human mesangial cells. Cells were cultured in DMEM (0.5% FBS) with or without 10 ng/mL of TGF-β for 48 h in a humidified atmosphere of 95% air-5% carbon dioxide at 37° C. CTGF measurement in the culture medium was measured using the CTGF ELISA according to the manufacturer (Prepotech) recommendations.

P815 mastocytoma = experiment: Primary P815 mastocytoma tumor growth in mice; type: in vivo; conditions: oral 200 mg/kg; FIG. 7 and 8
Excerpt: The syngeneic tumor P815 is a DBA/2 (H-2^d)-derived mastocytoma obtained from ATCC (TIB64). […] Mice were sacrificed around day 23 (depending on the experiment). […] Tumors were palpable, in general, 3-5 days post-inoculation.

## CCCCCCCCC(Oc1ccc(C(=O)CCC)cc1)C(=O)[O-].[Na+] (racemic) [Compound XXV, Sodium (RS)-2-[4-Butyrylphenoxy]decanoate]
IL-12 production; compound 0.04 mM
  IL-12 (pg/mL): 73 (at 0.04 mM) pg/mL
other
  melting point: 262 to 278 °C

## sodium decanoate and 5-fluorouracil
CT-26WT colon tumor; combination, from day 16 to day 26
  tumor growth T/C: approximately 40%

## CCCCCCCC(=O)c1cccc2c1CC(C(=O)[O-])C2.[Na+] (racemic) [Compound XLI, Sodium (RS)-4-Octanoylindane-2-Carboxylate]
IL-12 production; compound 0.1 mM
  IL-12 (pg/mL): 25 (at 0.1 mM) pg/mL

## CCCCCc1cc(O)cc(CC(=O)[O-])c1.[Na+] [Compound VIII, Sodium salt of [3-Hydroxy-5-pentylphenyl]acetic acid]
IL-12 production
  IL-12: 17 pg/mL
CTGF production
  inhibition at 200 µM: 47%

## O=c1[nH]cc(F)c(=O)[nH]1 [5-fluorouracil, reference compound]
CT-26WT colon tumor; sodium decanoate oral 200 mg/kg daily, 5-fluorouracil i.p. 40 mg/kg day 6, 13, 20, Compound XV oral
  efficacy on primary tumor CT-26 (single agent): weak efficacy

## CCCC/C=C/c1cccc(CC(=O)[O-])c1.[Na+] [Compound VI]
IL-12 production
  IL-12: 53 pg/mL

## CCCCCc1ccc(C(=O)[O-])cc1.[Na+] [Compound XI, Sodium salt of 4-pentylbenzoic acid]
IL-12 production
  IL-12: 78 pg/mL
CTGF production
  inhibition at 500 µM: 28%

## CCCCCc1cc(CC(=O)[O-])ccc1O.[Na+] [Compound IX, Sodium 2-[4-Hydroxy-3-pentylphenyl]acetate]
IL-12 production
  IL-12: 20 pg/mL
other
  melting point: 193 to 197 °C

## CCCCCCCC(=O)c1ccc(OC(CCCCCC)C(=O)[O-])cc1.[Na+] (racemic) [Compound XXIV, Sodium (RS)-2-[4-Octanoylphenoxy]octanoate]
IL-12 production; compound 0.02 mM
  IL-12 (pg/mL): 12 (at 0.02 mM) pg/mL
other
  melting point: 165 to 170 °C

## CCCCCc1cccc(CCC(=O)[O-])c1.[Na+] [Compound II, Sodium salt of 3-(3-pentylphenyl)propionic acid]
IL-12 production
  IL-12: 351 pg/mL
CTGF production; 100 μM
  inhibition at 100 µM: 38%
P815 mastocytoma
  P815 tumor growth: significant reduction (p<0.05)

## CCC/C=C/c1cccc(CC(=O)[O-])c1.[Na+] [Compound IV, Sodium salt of E-(3-pent-1-enyl-phenyl)acetic acid]
IL-12 production
  IL-12: 19 pg/mL
CTGF production
  inhibition at 500 µM: 34%

## CCCCCCCCC(Oc1ccc(C(=O)CCCCC)cc1)C(=O)[O-].[Na+] (racemic) [Compound XXVI, Sodium (RS)-2-[4-Hexanoylphenoxy]decanoate]
IL-12 production; compound 0.02 mM
  IL-12 (pg/mL): 54 (at 0.02 mM) pg/mL
other
  melting point: 275 to 280 °C

## CCCCOc1ccc(C(CC(=O)[O-])c2cccc(F)c2)cc1.[Na+] (stereo not drawn)
other
  melting point: 135 °C

## CCCCc1cccc(CCC(=O)[O-])c1.[Na+] [Compound III]
IL-12 production
  IL-12: 62 pg/mL
CTGF production
  inhibition at 500 µM: 46%

## CCCCCCc1cccc(C(=O)[O-])c1.[Na+] [Compound XIII, Sodium salt of 3-hexylbenzoate]
IL-12 production; compound 0.125 mM
  IL-12 (pg/mL): 18 (at 0.125 mM) pg/mL
CTGF production; 125 μM
  inhibition at 125 µM: 29%

## CCCCCCCC(=O)c1cccc(C(=O)[O-])c1.[Na+] [Compound XVIII, Sodium 3-octanoylbenzoate]
IL-12 production
  IL-12: 1099 pg/mL
CTGF production
  inhibition at 200 µM: 49%

## CCCCCCCC(=O)c1ccc2c(c1)CC(C(=O)[O-])C2.[Na+] (racemic) [Compound XIX, Sodium (RS)-5-octanoylindane-2-carboxylate]
IL-12 production; compound 0.05 mM
  IL-12 (pg/mL): 53 (at 0.05 mM) pg/mL
CTGF production; 63 μM
  inhibition at 63 µM: 45%

From patent US9439882B2, “Compounds and compositions for the treatment of cancer” (PROMETIC BIOSCIENCES, INC., priority 2010, dated 2016)
